A value given as a limit tells only on which side of the number the result lay.

Common to all, as to format: cell-based
Experiment [1] deals with Nalm6 (human ALL cell line). In words: CellTiter Glo assay in Nalm6 cells. Here is the method:
(§1) The compounds prepared according to the methods described herein and tested for activity in the CellTiter Glo assay in HL60 (Human promyelocytic leukemia cell line), Jukat (human T lymphocyte cell line for acute T cell leukemia) and/or Nalm6 (human ALL cell line) cells.
(§2) Compounds were prepared according to the methods described herein and tested for activity in the CellTiter Glo assay in HL60 (Human promyelocytic leukemia cell line), Jukat (human T lymphocyte cell line for acute Tcell leukemia) and/or Nalm6 (human ALL cell line) cells.
Background: Cellular ATP, detected with luciferase, serves as a proxy for viable cell number.

The test system of experiment [2] is Jukat (human T lymphocyte cell line for acute T cell leukemia). In words: CellTiter Glo assay in Jukat cells. The method, then:
as §1, §2

Experiment [3] concerns HL60 (Human promyelocytic leukemia cell line). In words: CellTiter Glo assay in HL60 cells. Here is the method: as §1, §2

By IC50 is commonly meant the concentration at which inhibition is half-maximal. A high value points to weaker potency. Take `N#Cc1ccc(NC(=O)c2ccc3cccnc3c2O)cc1` [Compound 64]: the IC50 in experiment [1] (NALM-6, Table 5) is less than 0.1 µM; in experiment [2] (Table 5) it was 0.1 to 1 µM; in experiment [3] (HL-60, Table 5) it was 0.1 to 1 µM.

Regarding `O=C(Nc1ccc(OC(F)(F)F)cc1)c1cc(F)ccc1O` [Compound 45], the IC50 in experiment [1] (NALM-6, second Table 4) is 1 to 10 µM; in experiment [2] (second Table 4) it was less than 1 µM; in experiment [3] (HL-60, second Table 4) it was less than 1 µM.

For `N#Cc1ccc(NC(=O)c2cc(-c3cc(F)cc(F)c3)ccc2O)cc1` [Compound 233], the IC50 was 1 to 10 µM in experiment [1] (NALM-6, second Table 4); 1 to 10 µM in experiment [2] (second Table 4); 1 to 10 µM in experiment [3] (HL-60, second Table 4).

Take `Cc1cc(C(=O)Nc2ccc(C#N)cc2)c(O)c2ncccc12` [Compound 73]: the IC50 in experiment [1] (NALM-6, Table 5) is 0.1 to 1 µM; in experiment [2] (Table 5), 0.1 to 1 µM; in experiment [3] (HL-60, Table 5), 1 to 10 µM.

Regarding `CCOC(=O)c1cccc(NC(=O)c2cc(F)ccc2O)c1` [Compound 58], the IC50 in experiment [1] (NALM-6, second Table 4) was 1 to 10 µM; in experiment [2] (second Table 4), 1 to 10 µM; in experiment [3] (HL-60, second Table 4), less than 1 µM.

`O=C(Nc1cccc(OC(F)(F)F)c1)c1cc(F)ccc1O` [Compound 52]: the IC50 was 1 to 10 µM in experiment [1] (NALM-6, second Table 4); less than 1 µM in experiment [2] (second Table 4); less than 1 µM in experiment [3] (HL-60, second Table 4).

For `Cc1ccc(NC(=O)c2cc(F)ccc2O)cc1C(F)(F)F` [Compound 49], the IC50 is 1 to 10 µM in experiment [1] (NALM-6, second Table 4); 1 to 10 µM in experiment [2] (second Table 4); less than 1 µM in experiment [3] (HL-60, second Table 4).

For `O=C(Nc1ccc(C(F)(F)F)cc1)c1cc(F)ccc1O` [Compound 44], the IC50 in experiment [1] (NALM-6, second Table 4) is less than 1 µM; in experiment [2] (second Table 4), less than 1 µM; in experiment [3] (HL-60, second Table 4), less than 1 µM.

`O=C(Nc1ccc(Cl)c(Cl)c1)c1cc(F)ccc1O` [Compound 31]: the IC50 in experiment [1] (NALM-6, second Table 4) is 1 to 10 µM; in experiment [2] (second Table 4) it was less than 1 µM; in experiment [3] (HL-60, second Table 4) it was less than 1 µM.

Turning to `O=C(Nc1ccc(Cl)c(C(F)(F)F)c1)c1cc(F)ccc1O` [Compound 47], the IC50 in experiment [1] (NALM-6, second Table 4) was less than 1 µM; in experiment [2] (second Table 4) it was more than 10 µM; in experiment [3] (HL-60, second Table 4) it was less than 1 µM.

For the molecule `N#Cc1ccc(NC(=O)c2ccc(-c3ccccc3)cc2O)cc1` [Compound 101], the IC50 in experiment [1] (NALM-6, second Table 4) is less than 1 µM; in experiment [2] (second Table 4) it was less than 1 µM; in experiment [3] (HL-60, second Table 4) it was less than 1 µM.

Regarding `N#Cc1ccc(Cl)c(NC(=O)c2ccc3cccnc3c2O)c1` [Compound 80], the IC50 fell in the range of 0.1 to 1 µM in experiment [1] (NALM-6, Table 5); 0.1 to 1 µM in experiment [2] (Table 5); 0.1 to 1 µM in experiment [3] (HL-60, Table 5).

As for `O=C(Nc1cccc(C(F)(F)F)c1)c1cc(F)ccc1O` [Compound 50], the IC50 in experiment [1] (NALM-6, second Table 4) was 1 to 10 µM; in experiment [2] (second Table 4), less than 1 µM; in experiment [3] (HL-60, second Table 4) it was less than 1 µM.

On to `N#Cc1ccc(NC(=O)c2cc(Br)c3cccnc3c2O)cc1` [Compound 71], for which the IC50 in experiment [1] (NALM-6, Table 5) was less than 0.1 µM; in experiment [2] (Table 5), less than 0.1 µM; in experiment [3] (HL-60, Table 5), 0.1 to 1 µM.

Turning to `Cc1cc(C#N)ccc1NC(=O)c1ccc2cccnc2c1O` [Compound 78], the IC50 in experiment [1] (NALM-6, Table 5) is less than 0.1 µM; in experiment [2] (Table 5) it was 0.1 to 1 µM; in experiment [3] (HL-60, Table 5) it was 0.1 to 1 µM.

Take `Cc1cc(NC(=O)c2cc(F)ccc2O)ccc1F` [Compound 56]: the IC50 in experiment [1] (NALM-6, second Table 4) was 1 to 10 µM; in experiment [2] (second Table 4), less than 1 µM; in experiment [3] (HL-60, second Table 4) it was 1 to 10 µM.

With `Cc1ccc(C#N)c(NC(=O)c2ccc3cccnc3c2O)c1` [Compound 86], the IC50 is 0.1 to 1 µM in experiment [1] (NALM-6, Table 5); 0.1 to 1 µM in experiment [2] (Table 5); 1 to 10 µM in experiment [3] (HL-60, Table 5).

As for `O=C(Nc1ccc(Cl)cc1Cl)c1ccc2cccnc2c1O` [Compound 81], the IC50 lay within 0.1 to 1 µM in experiment [1] (NALM-6, Table 5); 0.1 to 1 µM in experiment [2] (Table 5); 0.1 to 1 µM in experiment [3] (HL-60, Table 5).

As to `O=C(Nc1cccc(F)c1F)c1cc(F)ccc1O` [Compound 40], the concentration for half-maximal inhibition (IC50) in experiment [1] (NALM-6, second Table 4) lay within 1 to 10 µM; in experiment [2] (second Table 4), 1 to 10 µM; in experiment [3] (HL-60, second Table 4) it was 1 to 10 µM.

With `N#Cc1ccc(NC(=O)c2ccc(C(F)(F)F)cc2O)cc1` [Compound 17], the IC50 in experiment [1] (NALM-6, second Table 4) was less than 1 µM; in experiment [2] (second Table 4) it was less than 1 µM; in experiment [3] (HL-60, second Table 4) it was less than 1 µM.

Consider `Cc1cccc(Cl)c1NC(=O)c1ccc2cccnc2c1O` [Compound 79], for which the IC50 in experiment [1] (NALM-6, Table 5) fell in the range of 1 to 10 µM; in experiment [2] (Table 5), 1 to 10 µM; in experiment [3] (HL-60, Table 5), 1 to 10 µM.

Values taken from patent US20210205292A1, “INHIBITORS OF CREB-CBP INTERACTION FOR TREATMENT OF LEUKEMIA” (The Board of Trustees of the Leland Stanford Junior …, priority 2016, published 2021).
